Results: patent US4981861A, “Tricyclic imidazole derivatives” (Hoffmann-La Roche Inc., priority 1984, dated 1991)

Key:
gastric acid secretion = assay: gastric acid secretion-inhibiting activity (4-methylhistamine-stimulated, Heidenhain pouch, oral); format: in vivo; details: Canis lupus familiaris, conscious beagle hounds, p.o., 50% inhibition of gastric acid production caused by i.v. 4-methylhistamine, read-out: Gastric acid secretion-inhibition ED 50
Experimental: The experimental procedure described hereinafter was used to determine the gastric acid secretion-inhibiting activity:
A part of the stomach fundus of female and male beagle hounds is separated from the remainder of the stomach in the form a pouch of the Heidenhain type (modification of the method described by Rudick et al. in J. Surgical Research 7, 383-398 (1967)). In the pouch there is fitted a steel cannula which is conducted externally through the abdominal wall. Before each experiment the animals receive no food for 18 hours, but receive water ad libitum. They are conscious and standing during the experiment and their gastric acid secretion is stimulated by the intravenous infusion of 4-methylhistamine, a selective agonist of the histamine H2 -receptors. The gastric acid production is determined in 15 minute fractions of the stomach pouch juice. As soon as the gastric acid production has a constant value, the substances to be tested are administered orally as a dry powder filled into gelatine capsules. The ED50 is that dosage of a test substance which brings about a 50% inhibition of the gastric acid production caused by 4-methylhistamine in the treated animals in comparison to the controls.

[1] = acute toxicity (single oral administration to mice); details: mouse, in vivo, read-out: Toxicity LD 50
Source text: In the following Table there are given for a series of compounds of formula I the results of the testing with respect to their anti-ulcer activity and to their gastric secretion-inhibiting activity. Moreover, this Table contains data concerning the acute toxicity (LD50 in the case of single oral administration to mice).

lesions of the stomach = assay: anti-ulcer activity (protection from indomethacin-induced lesions of the stomach, oral); format: in vivo, male rats; details: Rattus norvegicus, rats, p.o. 1 hour before and 2 hours after 20 mg/kg indomethacin p.o., dosage protecting 50% of the animals, read-out: Anti-ulcer ED 50
Experimental: The experimental procedure described hereinafter was used to determine the anti-ulcer activity:
Groups each comprising 8 male rats with a body weight of 130-150 g are used for each dosage of a test substance. Before the beginning of the experiment the animals receive no food for 24 hours, but receive water ad libitum. Various dosages of the substances to be tested (suspended in 0.5% tragacanth) or the vehicle alone (controls) are administered twice orally, namely 1 hour before and 2 hours after the oral administration of 20 mg/kg of indomethacin. In the control animals this dosage of indomethacin leads to lesions of the stomach within 5 hours. The animals are sacrificed 6 hours after the first administration of the substance under investigation (or of the vehicle alone). The rats which remain protected from the occurrence of macroscopically visible lesions to the mucous membrane of the stomach are counted. The ED is that dosage of a test substance at which 50% of the animals are protected from the occurence of such lesions.

Row | SMILES | ED50 (gastric acid secretion) [mg/kg] | LD50 [1] [mg/kg] | ED50 (lesions of the stomach) [mg/kg]
1 | COc1c(C)cnc(CSc2nc3cc4c(cc3[nH]2)C(C)(C)C(=O)C4(C)C)c1C [A, 5,7-dihydro-2-[[(4-methoxy-3,5-dimethyl-2-pyridyl)-methyl]thio]-5,5,7,7-tetramethylindeno[5,6-d]imidazol-6(lH)-one] | 4.88 | > 5000 | 2
2 | COc1c(C)cnc(C[S+]([O-])c2nc3cc4c(cc3[nH]2)C(C)(C)C(=O)C4(C)C)c1C (stereo not drawn) [B, 5,7-dihydro-2-[[(4-methoxy-3,5-dimethyl-2-pyridyl)-methyl]sulfinyl]-5,5,7,7-tetramethylindeno[5,6-d]imidazol-6(lH)-one] | 5.44 | > 5000 | 2.3
3 | COc1ccnc(CSc2nc3cc4c(cc3[nH]2)C(C)(C)C(=O)C4(C)C)c1C [C, 5,7-dihydro-2-[[(4-methoxy-3-methyl-2-pyridyl)methyl]thio]-5,5,7,7-tetramethylindeno[5,6-d]imidazol-6(lH)-one] | 2.56 | > 5000 | 1.2
4 | COc1ccnc(C[S+]([O-])c2nc3cc4c(cc3[nH]2)C(C)(C)C(=O)C4(C)C)c1C (stereo not drawn) [D, 5,7-dihydro-2-[[(4-methoxy-3-methyl-2-pyridyl)-methyl]sulfinyl]-5,5,7,7-tetramethylindeno[5,6-d]imidazol-6(lH)-one] | 3.59 | > 5000 | 1.3
5 | COc1ccnc(C[S+]([O-])c2nc3cc4c(cc3[nH]2)OCO4)c1C (stereo not drawn) [E, 6-[[(4-methoxy-3-methyl-2-pyridyl)methyl]sulfinyl]-5H-1,3-dioxolo[4,5-f]benzimidazole] | 1.79 | > 5000 | 4
6 | COc1c(C)cnc(C[S+]([O-])c2nc3cc4c(cc3[nH]2)OCO4)c1C (stereo not drawn) [F, 6-[[(4-methoxy-3,5-dimethyl-2-pyridyl)methyl]sulfinyl]-5H-1,3-dioxolo[4,5-f]benzimidazole] | 1.4 | > 5000 | 6
7 | CON=C1C(C)(C)c2cc3nc([S+]([O-])Cc4nccc(OC)c4C)[nH]c3cc2C1(C)C (stereo not drawn) [H, 5,7-dihydro-2-[[(4-methoxy-3-methyl-2-pyridyl)methyl]sulfinyl]-5,5,7,7-tetramethylindeno[5,6-d]imidazol-6(lH)-one 0-methyl oxime] | 7.78 | 1250 to 2500 | 5
8 | CON=C1C(C)(C)c2cc3nc(SCc4nccc(OC)c4C)[nH]c3cc2C1(C)C [I, 5,7-dihydro-2-[[(4-methoxy-3-methyl-2-pyridyl)methyl]thio]-5,5,7,7-tetramethylindeno[5,6-d]imidazol-6(lH)-one 0-methyl oxime] | 2.25 | 1250 to 2500 | 4
